Values after ≈ are worked out from the molar mass of the structure shown. Where two headings read alike, the source gives them in different places.
Assays:
[1] = system: S. aureus HH 127; experiment: in vitro MIC testing, S. aureus HH 127; type: cell-based
Description: (§1) The compounds of Formula I have exceptional antibacterial activity against both Gram-positive and Gram-negative organisms. Minimum inhibitory concentrations (MIC's) range from 0.2 to >200 μg/ml in in vitro testing. Test results for the compound 7β-D-mandelamido-3-[1-(2-methanesulfonamidoethyl)tetrazol-5-ylthiomethyl]-3-cephem-4-carboxylic acid sodium salt hydrate (Compound A) are given below: […]

[2] = system: S. aureus SK 23390; experiment: in vitro MIC testing, S. aureus SK 23390; type: cell-based
Description: as §1

[3] = system: Strep. faecalis HH 34358; experiment: in vitro MIC testing, Strep. faecalis HH 34358; type: cell-based
Description: as §1

[4] = system: E. coli SK 12140; experiment: in vitro MIC testing, E. coli SK 12140; type: cell-based; conditions: Escherichia coli, SK12140
Description: as §1

[5] = system: E. coli HH 33779; experiment: in vitro MIC testing, E. coli HH 33779; type: cell-based
Description: as §1

[6] = system: Kleb. pneumo. SK 4200; experiment: in vitro MIC testing, Kleb. pneumo. SK 4200; type: cell-based
Description: as §1

[7] = system: Kleb. pneumo. SK 1200; experiment: in vitro MIC testing, Kleb. pneumo. SK 1200; type: cell-based
Description: as §1

[8] = system: Salmonella ATCC 12176; experiment: in vitro MIC testing, Salmonella ATCC 12176; type: cell-based; conditions: ATCC12176, two values given
Description: as §1

[9] = system: Shigella HH 117; experiment: in vitro MIC testing, Shigella HH 117; type: cell-based; conditions: HH117
Description: as §1

[10] = system: Pseudo. aerug. HH 63; experiment: in vitro MIC testing, Pseudo. aerug. HH 63; type: cell-based
Description: as §1

[11] = system: Serratia marc. ATCC 13880; experiment: in vitro MIC testing, Serratia marc. ATCC 13880; type: cell-based; conditions: ATCC13880, two values given
Description: as §1

[12] = system: Proteus morgani 179; experiment: in vitro MIC testing, Proteus morgani 179; type: cell-based; conditions: two values given
Description: as §1

[13] = system: Entero aerog. ATCC 13048; experiment: in vitro MIC testing, Entero aerog. ATCC 13048; type: cell-based; conditions: two values given
Description: as §1

[14] = system: Entero. cloacae HH 31254; experiment: in vitro MIC testing, Entero. cloacae HH 31254; type: cell-based; conditions: Enterobacter cloacae, HH31254
Description: as §1

[15] = system: Proteus mirabilis 444; experiment: in vitro MIC testing, Proteus mirabilis 444; type: cell-based
Description: as §1

[16] = system: E. coli 12140; experiment: in vivo mouse protection test, E. coli 12140
Description: (§2) 4200 upon subcutaneous injection; cefazolin gave results of 4 mg/kg against E. coli 12140 and 11.3 mg/kg against Kleb. pneumo. 4200 upon subcutaneous administration.

[17] = system: Kleb. pneumo. 4200; experiment: in vivo mouse protection test, Kleb. pneumo. 4200; conditions: sc
Description: as §2

[18] = two values given, sodium salt hydrate

Q: With `Cc1nnc(SCC2=C(C(=O)O)N3C(=O)[C@@H](NC(=O)Cn4cnnn4)[C@H]3SC2)s1` [Cefazolin, reference compound] as the compound, how does the MIC ([1]; Staphylococcus aureus, HH127, two values given, read-out: MIC) read?
A: 0.4 µg/mL (≈ 0.88 µM)

Q: And the MIC ([2]; Staphylococcus aureus, SK23390, two values given, read-out: MIC)?
A: 0.2 µg/mL (≈ 0.44 µM)

Q: What about the MIC ([3]; Enterococcus faecalis, HH34358, two values given, read-out: MIC) of the same compound?
A: 6.3 µg/mL (≈ 13.9 µM)

Q: And the MIC ([4]; E. coli SK 12140, two values given, read-out: MIC)?
A: 0.8 µg/mL (≈ 1.76 µM)

Q: And the MIC ([5]; Escherichia coli, HH33779, two values given, read-out: MIC)?
A: 1.6 µg/mL (≈ 3.52 µM)

Q: What about the MIC ([6]; Kleb. pneumo. SK 4200, two values given, read-out: MIC) of the same compound?
A: 1.6 µg/mL (≈ 3.52 µM)

Q: And the MIC ([7]; Kleb. pneumo. SK 1200, two values given, read-out: MIC)?
A: 0.8 µg/mL (≈ 1.76 µM)

Q: And the MIC [8]?
A: 0.8 µg/mL (≈ 1.76 µM)

Q: And the MIC [9]?
A: 0.4 µg/mL (≈ 0.88 µM)

Q: And the MIC ([10]; Pseudo. aerug. HH 63, two values given, read-out: MIC)?
A: > 200 µg/mL

Q: And the MIC [11]?
A: > 200 µg/mL

Q: And the MIC ([12]; read-out: MIC)?
A: 200 µg/mL (≈ 440 µM)

Q: What about the MIC ([13]; read-out: MIC) of the same compound?
A: 1.6 µg/mL (≈ 3.52 µM)

Q: What about the MIC ([14]; Entero. cloacae HH 31254, two values given, read-out: MIC) of the same compound?
A: 0.8 µg/mL (≈ 1.76 µM)

Q: And the MIC ([15]; read-out: MIC)?
A: 3.1 µg/mL (≈ 6.82 µM)

Q: What about the ED50 ([16]; Escherichia coli, sc, mouse protection, E. coli 12140, subcutaneous, read-out: ED50) of the same compound?
A: 4 mg/kg

Q: And the ED50 ([17]; mouse protection, Kleb. pneumo. 4200, subcutaneous, read-out: ED50)?
A: 11.3 mg/kg

Q: `CS(=O)(=O)NCCn1nnnc1SCC1=C(C(=O)[O-])N2C(=O)[C@@H](NC(=O)[C@H](O)c3ccccc3)[C@H]2SC1.O.[Na+]` [Compound A, 7β-D-mandelamido-3-[1-(2-methanesulfonamidoethyl)tetrazol-5-ylthiomethyl]-3-cephem-4-carboxylic acid sodium salt hydrate] was tested. Which MIC ([1]; Staphylococcus aureus, HH127, two values given) did it give?
A: 3.1 µg/mL

Q: What about the MIC [1, 18] of the same compound?
A: 1.6 µg/mL

Q: What about the MIC ([2]; Staphylococcus aureus, SK23390, two values given) of the same compound?
A: 0.8 µg/mL

Q: And the MIC [2, 18]?
A: 0.4 µg/mL

Q: And the MIC ([3]; Enterococcus faecalis, HH34358, two values given)?
A: 25 µg/mL

Q: What about the MIC [3, 18] of the same compound?
A: 12.5 µg/mL

Q: What about the MIC [4] of the same compound?
A: 0.8 µg/mL

Q: What about the MIC ([5]; Escherichia coli, HH33779, two values given) of the same compound?
A: 1.6 µg/mL

Q: What about the MIC [5, 18] of the same compound?
A: 0.8 µg/mL

Q: And the MIC [6]?
A: 0.4 µg/mL

Q: And the MIC [7]?
A: 0.4 µg/mL

Q: What about the MIC [8] of the same compound?
A: 0.4 µg/mL

Q: What about the MIC [9] of the same compound?
A: 0.2 µg/mL

Q: And the MIC [10]?
A: > 200 µg/mL

Q: And the MIC [12]?
A: 1.6 µg/mL

Q: And the MIC ([12]; sodium salt hydrate)?
A: 0.8 µg/mL

Q: And the MIC [13]?
A: 1.6 µg/mL

Q: And the MIC ([13]; sodium salt hydrate)?
A: 0.8 µg/mL

Q: And the MIC [14]?
A: 0.8 µg/mL

Q: What about the MIC [15] of the same compound?
A: 0.8 µg/mL

Q: And the ED50 ([16]; Escherichia coli, 12140, sc)?
A: 0.39 mg/kg

Q: And the ED50 ([17]; Mus musculus)?
A: 2.44 mg/kg
